From US9956197B2 (priority 2013, dated 2018)
Marks after values point to notes of the source that are not given here.

Tests used:
[1] = tested on: PTZ (Pentylenetetrazol) induced clonic seizure; assay: animal or person; format: in vivo, ICR mice; conditions: for PTZ test (ip) in Mice Peak Time / PTZ test (ip) in Mice Protection %: mouse, in vivo
[2] = tested on: PTZ (Pentylenetetrazol) induced clonic seizure; parameters: species or system SD rats; conditions: rat, in vivo
[3] = tested on: ACTH-refractory infantile spasm (behavioral spasms); assay: animal or person; format: in vivo, Sprague-Dawley rats; conditions: for inhibition in vivo at 60 mg/kg: Rattus norvegicus, ip, read-out: ACTH-refractory IS (ip) Protection %, percentage of activity compared to the vehicle only; for ACTH-refractory IS (ip) Peak Time: rat, in vivo
[4] = tested on: Lithium-pilocarpine induced status epilepticus; parameters: species or system Sprague-Dawley rats; conditions: in vivo
[5] = tested on: Picrotoxin (PIC) induced clonic seizure; assay: animal or person; format: in vivo, ICR mice
[6] = tested on: Lithium-pilocarpine induced status epilepticus; parameters: species or system Sprague-Dawley rats; conditions: in vivo; remark: listed apart in the source
[7] = Mus musculus, ip, read-out: PIC (ip) percentage of activity compared to the vehicle only

| Compound | inhibition in vivo at 60 mg/kg [3] [%] | ACTH-refractory IS (ip) Peak Time [3] [h] | Intervention (rat, iv) Protection % [6] | responders at 50 mg/kg [5, 7] [%] | PTZ test (ip) in Mice Protection % [1] | also measured |
| --- | --- | --- | --- | --- | --- | --- |
| CC(OC(N)=O)C(O)c1ccccc1Cl (racemic) [Compound 3, 1-(2-chlorophenyl)-1-hydroxypropyl-2-carbamate] | 34 | 3 | – | – | – | PTZ test (ip) in Mice Peak Time ([1]; ip): 0.5 h; PTZ test (ip) in Rats Peak Time [2]: 18.9 (*0.5) h; Prevention (rat, ip) Peak Time [4]: 0.5 h; responders at 10 mg/kg [5, 7]: 50% |
| CCC(OC(N)=O)C(O)c1ccccc1Cl (racemic) [Compound 8, 1-(2-chlorophenyl)-1-hydroxybutyl-2-carbamate] | – | – | ^a46 (50%) | 33.3 | – | – |
| CCCCC(OC(N)=O)C(O)c1ccccc1Cl (racemic) [Compound 14, 1-(2-chlorophenyl)-1-hydroxyhexyl-2-carbamate] | – | – | – | 16.7 | ^a20.4 (16.7%) | – |
| CNC(=O)OC(C)C(O)c1ccccc1Cl (racemic) [Compound 29, 1-(2-chlorophenyl)-1-hydroxypropyl-2-N-methylcarbamate] | – | – | – | – | ^a20.4 (33.3%) | – |
| CCCNC(=O)OC(C)C(O)c1ccccc1Cl (racemic) [Compound 30, 1-(2-chlorophenyl)-1-hydroxypropyl-2-N-propylcarbamate] | – | – | – | 16.7 | ^a20.4 (33.3%) | – |
| CC(C)NC(=O)OC(C)C(O)c1ccccc1Cl (racemic) [Compound 31, 1-(2-chlorophenyl)-1-hydroxypropyl-2-N-isopropylcarbamate] | – | – | ^a46 (100%) | 16.7 | ^a20.4 (83.3%) | – |
| CC(OC(=O)NC1CC1)C(O)c1ccccc1Cl (racemic) [Compound 32, 1-(2-chlorophenyl)-1-hydroxypropyl-2-N-cyclopropylcarbamate] | – | – | ^a46 (100%) | – | ^a20.4 (16.7%) | – |
| C[C@@H](OC(N)=O)[C@H](O)c1ccccc1Cl [Compound 2, 1-(2-chlorophenyl)-(R)-1-hydroxypropyl-(R)-2-carbamate] | 65.9 | 1 | ^a46 (50%) | 16.7 | – | PTZ test (ip) in Mice Peak Time ([1]; ip): 0.5 h; PTZ test (ip) in Rats Peak Time [2]: 51.9 (*1) h; Prevention (rat, ip) Peak Time [4]: 0.5 h |
| C[C@@H](OC(N)=O)[C@@H](O)c1ccccc1Cl [Compound 4, 1-(2-chlorophenyl)-(S)-1-hydroxypropyl-(R)-2-carbamate] | 24.3 | 3 | ^a46 (100%) | – | – | PTZ test (ip) in Mice Peak Time ([1]; ip): 0.5 h; responders at 30 mg/kg [5, 7]: 100% |
| C[C@H](OC(N)=O)[C@H](O)c1ccccc1Cl [Compound 5, 1-(2-chlorophenyl)-(R)-1-hydroxypropyl-(S)-2-carbamate] | – | – | – | – | – | PTZ test (ip) in Mice Peak Time ([1]; ip): 0.5 h |
| CC[C@H](OC(N)=O)[C@@H](O)c1ccccc1Cl [Compound 6, 1-(2-chlorophenyl)-(S)-1-hydroxybutyl-(S)-2-carbamate] | 76.2 | 3 | ^a46 (100%) | 66.7 | – | PTZ test (ip) in Mice Peak Time ([1]; ip): 0.5 h |
| CC(C)[C@H](OC(N)=O)[C@@H](O)c1ccccc1Cl [Compound 9, 1-(2-chlorophenyl)-(S)-1-hydroxy-3-methyl-butyl-(S)-2-carbamate] | – | – | – | 16.7 | ^a20.4 (33.3%) | – |
| CCCC[C@H](OC(N)=O)[C@@H](O)c1ccccc1Cl [Compound 12, 1-(2-chlorophenyl)-(S)-1-hydroxyhexyl-(S)-2-carbamate] | – | – | – | 16.7 | ^a20.4 (33.3%) | – |
| CCCC[C@@H](OC(N)=O)[C@H](O)c1ccccc1Cl [Compound 13, 1-(2-chlorophenyl)-(R)-1-hydroxyhexyl-(R)-2-carbamate] | – | – | – | 16.7 | – | – |
| CNC(=O)O[C@@H](C)[C@@H](O)c1ccccc1Cl [Compound 15, 1-(2-chlorophenyl)-(S)-1-hydroxypropyl-(S)-2-N-methylcarbamate] | 67.4 | 2 | ^a46 (100%) | 50 | – | PTZ test (ip) in Rats Protection % [2]: ^b25 (33.3%) |
| CCCNC(=O)O[C@@H](C)[C@@H](O)c1ccccc1Cl [Compound 16, 1-(2-chlorophenyl)-(S)-1-hydroxypropyl-(S)-2-N-propylcarbamate] | – | – | ^a46 (100%) | – | – | PTZ test (ip) in Rats Protection % [2]: ^b30 (33.3%) |

| Compound | inhibition in vivo at 60 mg/kg [3] [%] | ACTH-refractory IS (ip) Peak Time [3] [h] | Intervention (rat, iv) Protection % [6] | responders at 50 mg/kg [5, 7] [%] | PTZ test (ip) in Mice Protection % [1] | also measured |
| --- | --- | --- | --- | --- | --- | --- |
| C[C@H](OC(=O)NC1CC1)[C@@H](O)c1ccccc1Cl [Compound 18, 1-(2-chlorophenyl)-(S)-1-hydroxypropyl-(R)-2-N-cyclopropylcarbamate] | – | – | ^a46 (66.7%) | – | – | PTZ test (ip) in Rats Protection % [2]: ^b30 (16.7%) |
| CCCNC(=O)O[C@H](C)[C@H](O)c1ccccc1Cl [Compound 23, 1-(2-chlorophenyl)-(R)-1-hydroxypropyl-(R)-2-N-propylcarbamate] | – | – | ^a46 (100%) | 16.7 | – | responders at 20.4 mg/kg ([1]; Mus musculus, ip, read-out: PTZ test (ip) in Mice Protection %): 50% |
| C[C@@H](OC(=O)NC1CC1)[C@H](O)c1ccccc1Cl [Compound 25, 1-(2-chlorophenyl)-(R)-1-hydroxypropyl-(R)-2-N-cyclopropylcarbamate] | – | – | ^a46 (100%) | – | ^a20.4 (66.7%) | – |
| C[C@H](OC(N)=O)[C@@H](O)c1ccc(Cl)cc1Cl [Compound 36, 1-(2,4-dichlorophenyl)-(S)-1-hydroxypropyl-(S)-2-carbamate] | 37.5 | 3 | – | 50 | ^a20.4 (33.3%) | – |
| C[C@H](OC(N)=O)[C@@H](O)c1c(Cl)cccc1Cl [Compound 37, 1-(2,6-dichlorophenyl)-(S)-1-hydroxypropyl-(S)-2-carbamate] | 83.8 | 3 | ^a46 (100%) | – | – | PTZ test (ip) in Mice Peak Time ([1]; ip): 0.25 h; ED50 ([5]; Mus musculus, ip, read-out: PIC (ip) ED50): 23.4 mg/kg; PIC (ip) Peak Time ([5]; mice): 0.25 h |
| C[C@H](OC(N)=O)[C@@H](O)c1cccc(Cl)c1Cl [Compound 38, 1-(2,3-dichlorophenyl)-(S)-1-hydroxypropyl-(S)-2-carbamate] | – | – | ^a46 (50%) | 50 | – | – |
| CC[C@H](OC(N)=O)[C@@H](O)c1ccc(Cl)cc1Cl [Compound 39, 1-(2,4-dichlorophenyl)-(S)-1-hydroxybutyl-(S)-2-carbamate] | – | – | – | 66.7 | – | PTZ test (ip) in Mice Peak Time ([1]; ip): 0.5 h |
| CC[C@H](OC(N)=O)[C@@H](O)c1c(Cl)cccc1Cl [Compound 40, 1-(2,6-dichlorophenyl)-(S)-1-hydroxybutyl-(S)-2-carbamate] | – | – | ^a46 (100%) | 66.6 | ^a20.4 (33.3%) | – |
| CCCC[C@H](OC(N)=O)[C@@H](O)c1ccc(Cl)cc1Cl [Compound 43, 1-(2,4-dichlorophenyl)-(S)-1-hydroxyhexyl-(S)-2-carbamate] | – | – | – | 16.6 | – | PTZ test (ip) in Rats Protection % [2]: ^b25 (33.3%) |
| CCCC[C@H](OC(N)=O)[C@@H](O)c1c(Cl)cccc1Cl [Compound 44, 1-(2,6-dichlorophenyl)-(S)-1-hydroxyhexyl-(S)-2-carbamate] | – | – | – | 16.6 | ^a20.4 (33.3%) | – |
| C[C@@H](OC(N)=O)[C@H](O)c1ccc(Cl)cc1Cl [Compound 45, 1-(2,4-dichlorophenyl)-(R)-1-hydroxypropyl-(R)-2-carbamate] | – | – | ^a46 (33.3%) | – | ^a20.4 (16.7%) | PTZ test (ip) in Rats Protection % [2]: ^b50 (16.7%) |
| C[C@@H](OC(N)=O)[C@H](O)c1c(Cl)cccc1Cl [Compound 46, 1-(2,6-dichlorophenyl)-(R)-1-hydroxypropyl-(R)-2-carbamate] | 78 | 3 | ^a46 (50%) | 33.3 | – | – |
| C[C@@H](OC(N)=O)[C@H](O)c1cccc(Cl)c1Cl [Compound 47, 1-(2,3-dichlorophenyl)-(R)-1-hydroxypropyl-(R)-2-carbamate] | 91 | 3 | – | – | – | – |
| C[C@H](OC(N)=O)[C@@H](O)c1ccccc1F [Compound 63, 1-(2-fluorophenyl)-(S)-1-hydroxypropyl-(S)-2-carbamate] | – | – | ^a46 (50%) | – | – | Prevention (rat, ip) Peak Time [4]: 0.25 h; responders at 60 mg/kg [5, 7]: 33.3% |
| C[C@H](OC(N)=O)[C@@H](O)c1ccccc1I [Compound 65, 1-(2-iodophenyl)-(S)-1-hydroxypropyl-(S)-2-carbamate] | 92.1 | 3 | ^a46 (100%) | – | ^a20.4 (100%) | Prevention (rat, ip) Peak Time [4]: 2 h; PIC (ip) percentage of activity compared to the vehicle only ([5]; mice, injection amount 50 mg/kg): 50^a (100%) |
| CC[C@H](OC(N)=O)[C@@H](O)c1ccccc1I [Compound 67, 1-(2-iodophenyl)-(S)-1-hydroxybutyl-(S)-2-carbamate] | 81.1 | 2 | ^a46 (100%) | 83.3 | – | PTZ test (ip) in Mice Peak Time ([1]; ip): 0.5 h; PTZ test (ip) in Rats Protection % [2]: ^b30 (33.3%); Prevention (rat, ip) Peak Time [4]: 0.5 h |
